Reference: patent US20250313547A1, “CEREBLON LIGANDS AND BIFUNCTIONAL COMPOUNDS COMPRISING THE SAME” (Arvinas Operations, Inc., priority 2017, published 2025)

Assays:
[1] = molecular target: T1, Estrogen receptor-alpha (ERα) (Homo sapiens (Human), UniProt P03372); assay: ERα degradation assay in T47D cells; assay type: cell-based; settings: 5 day incubation, read-out: ER degradation DC50
tau protein = assay: Tau protein in vitro degradation assay in SK-N-SH cells (Western blot); assay type: cell-based, human; settings: % degraded, 72-hour incubation
Procedure: 10. Tau Protein In Vitro Degradation Assay
To determine effect of PROTACs on tau protein degradation SK-N-SH cells were seeded in a 24-well tissue culture-treated plate for at least 18-hours prior to compound addition. Tau PROTACs were evaluated for tau degradation by lysing the cells in RIPA buffer with protease inhibitors following a 72-hour incubation with tau PROTACs. Cell lysates were run on standard SDS-PAGE gels, and tau levels were detected by Western blotting using Tau-13 antibody from Abcam (Cambridge, UK) that binds to all forms of human tau.

[2] = molecular target: T1, Estrogen receptor-alpha (ERα); assay: ERα degradation assay using In-Cell Western in MCF7 cells; assay type: cell-based; settings: read-out: ER degradation DC50
Procedure: 3. Estrogen Receptor-Alpha (ERα) Degradation Assay Using in-Cell Western™ Assay for Table 5.
Degradation of ERα by claimed compounds were determined in MCF7 cells using an In-Cell Western™ assay. Briefly, MCF7 cells were plated in 96-well plates (2000 cells per well in 100 μl media) and incubated at 37° C. under an atmosphere of 5% CO2 in a humidified incubator overnight. One-hundred (100) μl of media containing test compound (at 2× concentration) was added to the appropriate wells to provide 11 serially decreasing concentrations (top final concentration, 1 μM then 3-fold less for the next 10 concentrations); a vehicle control (DMSO) was also added for each compound. For each experiment, all compounds were assayed in duplicate plates. Cells were then incubated for 3 or 5 days in the above-mentioned environment. The assay was terminated by removal of media, a single wash with ice-cold PBS and the addition of 50 μl paraformaldehyde (PFA: 4% in PBS). After 15 minutes in PFA at room temperature, the cells were permeabilized in Tris-phosphate-buffered saline with Tween (0.1%) (TBST) supplemented with Triton X-100 (0.5%) for 15 minutes. Cells were then blocked in BSA (TBST with BSA, 3%) for one hour. […] The cells were incubated overnight at 4° C. The cells were then washed thrice with TBST at room temperature and then incubated with anti-rabbit and anti-mouse fluorescently-labelled secondary antibodies (IRDye®; LI-COR; Lincoln, NE) in LI-COR blocking buffer (Catalog #927-50000) for one hour at room temperature. Following 3 washes with TBST, the buffer was removed and the plates were read on an Odyssey® infrared imaging system (LI-COR®; Lincoln, NE) at 700 nm and 800 nm. Using commercial software (ImageStudio™; LI-COR, Lincoln, NE), the staining intensity for ERα and tubulin in each well was quantified and exported for analysis. For each data point, ERα intensity was normalized to tubulin intensity and for each compound all normalized intensity values were normalized to the vehicle control. DC50 and Dmax values were determined following a 4-parameter IC50 curve fit using ACAS dose response module (McNeil & Co Inc.).

c-myc = assay: BRD4 human c-Myc ELISA assay in 22RV-1 cells; assay type: cell-based; settings: 18 hours
Procedure: 6. BRD4 Human c-Myc ELISA Assay Protocol
22RV-1 cells were seeded at 30,000 cells/well at a volume of 75 µL/well in RPMI with 10% FBS media in 96-well plates and grown overnight at 37° C. Cells were dosed with compounds at 4× concentration diluted in 0.4% DMSO; compounds were serially diluted 1:3 for 8-point dose curve. Twenty-five (25) ul of the compounds was added to cells for a final concentration starting at 300 nM-0.3 nM or 1 uM-1 nM in 0.1% DMSO and incubated for 18 hours. Media was aspirated, cells were washed 1×with PBS and aspirated. Cells were lysed in 50 ul RIPA buffer (50 mM Tris pH8, 150 mM NaCl, 1% Tx-100, 0.1% SDS, 0.5% sodium deoxycholate) supplemented with protease and phosphatase inhibitors. Plates were incubated on ice for 15 minutes then centrifuged at 4° C. for 10 minutes at 4000 rpm. Fifty (50) ul of cleared lysate from a 96-well assay plate was added into 96-well c-myc ELISA plate (Novex, Life Technologies Catalog #KH02041). c-myc standard was reconstituted with standard diluent buffer; standard curve range of 333 pg/ml-0 pg/ml was prepared, diluted 1:2 for 8-point dose curve. The rest of the assay was performed following the protocol from the c-myc ELISA kit. Data was analyzed and plotted using GraphPad Prism software.

T1 sequence (P03372 whole entry): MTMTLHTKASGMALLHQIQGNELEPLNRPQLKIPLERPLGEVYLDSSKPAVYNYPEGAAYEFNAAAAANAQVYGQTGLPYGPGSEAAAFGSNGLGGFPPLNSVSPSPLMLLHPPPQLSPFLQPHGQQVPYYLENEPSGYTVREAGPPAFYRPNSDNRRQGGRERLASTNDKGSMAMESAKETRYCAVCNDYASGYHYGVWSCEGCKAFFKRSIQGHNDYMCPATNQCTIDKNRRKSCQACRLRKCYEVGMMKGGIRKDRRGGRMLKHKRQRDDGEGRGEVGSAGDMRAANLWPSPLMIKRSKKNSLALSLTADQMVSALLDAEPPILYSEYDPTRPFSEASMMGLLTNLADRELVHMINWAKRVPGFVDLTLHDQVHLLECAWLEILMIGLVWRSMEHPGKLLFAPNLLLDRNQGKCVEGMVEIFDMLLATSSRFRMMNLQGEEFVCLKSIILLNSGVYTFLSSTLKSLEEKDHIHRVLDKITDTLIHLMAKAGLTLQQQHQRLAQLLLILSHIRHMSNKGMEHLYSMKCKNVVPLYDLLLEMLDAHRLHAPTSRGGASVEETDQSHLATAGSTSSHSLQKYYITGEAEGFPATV

SMILES | DC50 [1] | DC50 ([2]; 5 day incubation) | further results
O=C1CCC(N2CC(Oc3cccc(C4CCN(CCCCOc5ccc([C@@H]6c7ccc(O)cc7CC[C@@H]6c6ccccc6)cc5)CC4)c3)=CC2=O)C(=O)N1 (mixture of isomers) [PROTAC-104, rac-3-(4-(3-(1-(4-(4-((1R,2S)-6-hydroxy-2-phenyl-1,2,3,4-tetrahydronaphthalen-1-yl)phenoxy)butyl)piperidin-4-yl)phenoxy)-2-oxo-2,5-dihydro-1H-pyrrol-1-yl)piperidine-2,6-dione] | ≥ 100 nM |  | 
O=C1CCC(N2CC(Oc3cccc(C4CCN(CCCOc5ccc([C@@H]6c7ccc(O)cc7CC[C@@H]6c6ccccc6)cc5)CC4)c3)=CC2=O)C(=O)N1 (stereo partly drawn) [PROTAC-106, 3-(4-(3-(1-(3-(4-((1R,2S)-6-hydroxy-2-phenyl-1,2,3,4-tetrahydronaphthalen-1-yl)phenoxy)propyl)piperidin-4-yl)phenoxy)-2-oxo-2,5-dihydro-1H-pyrrol-1-yl)piperidine-2,6-dione] | 1 to 10 nM |  | 
Cn1c2ccncc2c2ccc(-c3ccc(OCCOCCOCCOCCOCCN4CCC5(CC4)CC(=O)N(C4CCC(=O)NC4=O)C5=O)nc3)cc21 (stereo not shown) [PROTAC-112, 2-(2,6-dioxopiperidin-3-yl)-8-(14-((5-(5-methyl-5H-pyrido[4,3-b]indol-7-yl)pyridin-2-yl)oxy)-3,6,9,12-tetraoxatetradecyl)-2,8-diazaspiro[4.5]decane-1,3-dione] |  |  | Tau degradation % DMax (tau protein): C (C <= 50)
Cc1nc2c(NCCN3CCN(CCOc4ccc(Oc5c(-c6ccc(Br)cc6)sc6cc(O)ccc56)cc4)CC3)cccc2c(=O)n1C1CCC(=O)NC1=O (stereo not shown) [PROTAC-107, 3-(8-((2-(4-(2-(4-((2-(4-bromophenyl)-6-hydroxybenzo[b]thiophen-3-yl)oxy)phenoxy)ethyl)piperazin-1-yl)ethyl)amino)-2-methyl-4-oxoquinazolin-3(4H)-yl)piperidine-2,6-dione] |  |  | DC50 ([2]; 3 day incubation): ≥ 100 nM
Cc1nc2c(OCCN3CCN(CCOc4ccc(Oc5c(-c6ccc(Br)cc6)sc6cc(O)ccc56)cc4)CC3)cccc2c(=O)n1C1CCC(=O)NC1=O (stereo not shown) [PROTAC-108, 3-(8-(2-(4-(2-(4-((2-(4-bromophenyl)-6-hydroxybenzo[b]thiophen-3-yl)oxy)phenoxy)ethyl)piperazin-1-yl)ethoxy)-2-methyl-4-oxoquinazolin-3(4H)-yl)piperidine-2,6-dione] |  |  | DC50 ([2]; 3 day incubation): ≥ 100 nM
CN(C(=O)c1ccc(N2CCN(CCCCCOc3ccc([C@@H]4c5ccc(O)cc5CC[C@@H]4c4ccccc4)cc3)CC2)cc1)C1CCC(=O)NC1=O (mixture of isomers) [PROTAC-90, rac-N-(2,6-dioxopiperidin-3-yl)-4-(4-(5-(4-((1R,2S)-6-hydroxy-2-phenyl-1,2,3,4-tetrahydronaphthalen-1-yl)phenoxy)pentyl)piperazin-1-yl)-N-methylbenzamide] |  | 1 to 10 nM | 
O=C1CCC(n2cnc(N3CCN(CCCCCOc4ccc([C@@H]5c6ccc(O)cc6CC[C@@H]5c5ccccc5)cc4)CC3)cc2=O)C(=O)N1 (mixture of isomers) [PROTAC-101, rac-3-(4-(4-(5-(4-((1R,2S)-6-hydroxy-2-phenyl-1,2,3,4-tetrahydronaphthalen-1-yl)phenoxy)pentyl)piperazin-1-yl)-6-oxopyrimidin-1(6H)-yl)piperidine-2,6-dione] |  | 1 to 10 nM | 
O=C1CCC(n2ncc(N3CCN(CC4CCN(c5ccc([C@@H]6c7ccc(O)cc7CC[C@@H]6c6ccccc6)cc5)CC4)CC3)cc2=O)C(=O)N1 (stereo partly drawn) [PROTAC-102, 3-[4-[4-[[1-[4-[(1R,2S)-6-hydroxy-2-phenyl-tetralin-1-yl]phenyl]-4-piperidyl]methyl]piperazin-1-yl]-6-oxo-pyridazin-1-yl]piperidine-2,6-dione] |  | 1 to 10 nM | 
O=C1CCC(N2CC(Oc3cccc(C4CCN(CCCOc5ccc([C@H]6c7ccc(O)cc7CC[C@H]6c6ccccc6)cc5)CC4)c3)=CC2=O)C(=O)N1 (mixture of isomers) [PROTAC-105, rac-3-(4-(3-(1-(3-(4-((1R,2S)-6-hydroxy-2-phenyl-1,2,3,4-tetrahydronaphthalen-1-yl)phenoxy)propyl)piperidin-4-yl)phenoxy)-2-oxo-2,5-dihydro-1H-pyrrol-1-yl)piperidine-2,6-dione] | ≥ 100 nM |  | 
O=C1CCC(N2CC(Oc3cccc(C4CCN(CCCCOc5ccc([C@H]6c7ccc(O)cc7CC[C@H]6c6ccccc6)cc5)CC4)c3)=CC2=O)C(=O)N1 (mixture of isomers) [PROTAC-109, rac-3-(4-(3-(1-(4-(4-((1R,2S)-6-hydroxy-2-phenyl-1,2,3,4-tetrahydronaphthalen-1-yl)phenoxy)butyl)piperidin-4-yl)phenoxy)-2-oxo-2,5-dihydro-1H-pyrrol-1-yl)piperidine-2,6-dione] | ≥ 100 nM |  | 
O=C1CCC(n2cc(-c3ccc(N4CCN(CCCOc5ccc([C@@H]6c7ccc(O)cc7CC[C@@H]6c6ccccc6)cc5)CC4)cc3)cn2)C(=O)N1 (mixture of isomers) [PROTAC-110, rac-3-(4-(4-(4-(3-(4-((1R,2S)-6-hydroxy-2-phenyl-1,2,3,4-tetrahydronaphthalen-1-yl)phenoxy)propyl)piperazin-1-yl)phenyl)-1H-pyrazol-1-yl)piperidine-2,6-dione] |  | < 1 nM | 
Cc1sc2c(c1C)C(c1ccc(Cl)cc1)=NC(CC(=O)NCCCOCCCOc1ccc3ncc(-n4ccc(=O)[nH]c4=O)cc3c1)c1nnc(C)n1-2 (stereo not shown) [PROTAC-1, 2-(4-(4-chlorophenyl)-2,3,9-trimethyl-6H-thieno[3,2-f][1,2,4]triazolo[4,3-a][1,4]diazepin-6-yl)-N-(3-(3-((3-(2,4-dioxo-3,4-dihydropyrimidin-1(2H)-yl)quinolin-6-yl)oxy)propoxy)propyl)acetamide] |  |  | IMax Myc (c-myc): 40C (C <= 50)
CCN(C(=O)c1ccc(N2CCN(CCCCCOc3ccc([C@@H]4c5ccc(O)cc5CC[C@@H]4c4ccccc4)cc3)CC2)cc1OC)C1CCC(=O)NC1=O (mixture of isomers) [PROTAC-92, rac-N-(2,6-dioxopiperidin-3-yl)-N-ethyl-4-(4-(5-(4-((1R,2S)-6-hydroxy-2-phenyl-1,2,3,4-tetrahydronaphthalen-1-yl)phenoxy)pentyl)piperazin-1-yl)-2-methoxybenzamide] | ≥ 100 nM |  | 
